We go through 28 compounds from patent US9914730B2, “Azaquinazoline inhibitors of Atypical protein Kinase C” (Ignyta, Inc., priority 2012, dated 2018).

For this test, the target named is T1, full-length human PKCι (Homo sapiens, UniProt P41743).
T1 construct: Recombinant, full-length human PKCι expressed in Sf21 insect cells is also commercially available; purchased; host or cells: Sf21 insect cells
T1 sequence (P41743 1-596): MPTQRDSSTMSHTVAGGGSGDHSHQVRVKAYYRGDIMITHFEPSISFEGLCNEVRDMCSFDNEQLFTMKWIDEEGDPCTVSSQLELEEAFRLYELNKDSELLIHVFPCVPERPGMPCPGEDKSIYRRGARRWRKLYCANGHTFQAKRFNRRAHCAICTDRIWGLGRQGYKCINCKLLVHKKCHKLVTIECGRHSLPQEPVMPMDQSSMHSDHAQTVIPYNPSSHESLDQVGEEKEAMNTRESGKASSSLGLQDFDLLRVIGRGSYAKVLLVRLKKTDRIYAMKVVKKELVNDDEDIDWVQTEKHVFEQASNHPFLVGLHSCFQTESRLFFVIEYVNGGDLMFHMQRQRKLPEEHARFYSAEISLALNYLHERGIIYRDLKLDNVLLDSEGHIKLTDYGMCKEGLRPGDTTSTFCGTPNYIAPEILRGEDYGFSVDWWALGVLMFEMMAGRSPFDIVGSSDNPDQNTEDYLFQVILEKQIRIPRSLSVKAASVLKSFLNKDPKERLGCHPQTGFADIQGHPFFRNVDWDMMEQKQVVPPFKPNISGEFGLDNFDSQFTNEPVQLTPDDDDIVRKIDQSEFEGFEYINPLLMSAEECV
Nature of the test: PKCι IC50 IMAP assay, full-length PKCι at 150 μM ATP. It is filed as biochemical. Particulars: read-out: IC50 in IMAP assay against full length PKCi at 150 μM ATP. Put shortly:
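Full-length human PKCι from Sf21 cells, typically 15 pM, with 100 nM 5FAM-PKCε pseudosubstrate peptide and 150 μM ATP (5× apparent KM), 60 min at room temperature, 4% DMSO. IMAP fluorescence polarisation read-out; inhibition normalised to no-compound and no-enzyme controls, IC50 from curve fit.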
As to `Nc1ccc(CC(=O)Nc2cc(-c3nc(N[C@@H]4CCNC4)c4ccncc4n3)ccn2)cc1` [Example 314, 2-(4-Amino-phenyl)-N-{4-[4-((R)-pyrrolidin-3-ylamino)-pyrido[3,4-d]pyrimidin-2-yl]-pyridin-2-yl}-acetamide], the IC50 (as a rule, the concentration at which inhibition is half-maximal) was < 100 nM.
Take `NC(=O)Cc1cccc(Nc2cc(-c3nc(N[C@@H]4CCNC4)c4ccncc4n3)ccn2)c1` [Example 316, 2-(3-{4-[4-((R)-Pyrrolidin-3-ylamino)-pyrido[3,4-d]pyrimidin-2-yl]-pyridin-2-ylamino}-phenyl)-acetamide]: the IC50 lay in the range of 100 to 1000 nM.
For the compound `Nc1cccc(CC(=O)Nc2cc(-c3nc(N[C@@H]4CCNC4)c4ccncc4n3)ccn2)c1` [Example 317, 2-(3-Amino-phenyl)-N-{4-[4-((R)-pyrrolidin-3-ylamino)-pyrido[3,4-d]pyrimidin-2-yl]-pyridin-2-yl}-acetamide], the IC50 fell in the range of 100 to 1000 nM.
With `c1ccc(-c2ccc(Nc3cc(-c4nc(N[C@@H]5CCNC5)c5ccncc5n4)ccn3)nc2)cc1` [Example 318, {2-[2-(5-Phenyl-pyridin-2-ylamino)-pyridin-4-yl]-pyrido[3,4-d]pyrimidin-4-yl}-(R)-pyrrolidin-3-yl-amine], the IC50 is < 100 nM.
As for `c1cc2c(N[C@@H]3CCNC3)nc(-c3ccnc(Nc4ccc(N5CCOCC5)nc4)c3)nc2cn1` [Example 319, {2-[2-(6-Morpholin-4-yl-pyridin-3-ylamino)-pyridin-4-yl]-pyrido[3,4-d]pyrimidin-4-yl}-(R)-pyrrolidin-3-yl-amine], the IC50 was < 100 nM.
Consider `CN1CCN(c2ccc(Nc3cc(-c4nc(N[C@@H]5CCNC5)c5ccncc5n4)ccn3)cn2)CC1` [Example 320, (2-{2-[6-(4-Methyl-piperazin-1-yl)-pyridin-3-ylamino]-pyridin-4-yl}-pyrido[3,4-d]pyrimidin-4-yl)-(R)-pyrrolidin-3-yl-amine], for which the IC50 is < 100 nM.
On to `N#Cc1ccnc(Nc2cc(-c3nc(N[C@@H]4CCNC4)c4ccncc4n3)ccn2)c1` [Example 321, 2-{4-[4-((R)-Pyrrolidin-3-ylamino)-pyrido[3,4-d]pyrimidin-2-yl]-pyridin-2-ylamino}-isonicotinonitrile], for which the IC50 was < 100 nM.
Turning to `c1cc2c(N[C@@H]3CCNC3)nc(-c3ccnc(Nc4ccc(Cn5ccnc5)cc4)c3)nc2cn1` [Example 322, {2-[2-(4-Imidazol-1-ylmethyl-phenylamino)-pyridin-4-yl]-pyrido[3,4-d]pyrimidin-4-yl}-(R)-pyrrolidin-3-yl-amine], the IC50 was 100 to 1000 nM.
In the case of `COc1cncc2nc(-c3ccnc(Nc4cccc(OCC(N)=O)c4)c3)nc(N[C@@H]3CCNC3)c12` [Example 323, 2-(3-{4-[5-Methoxy-4-((R)-pyrrolidin-3-ylamino)-pyrido[3,4-d]pyrimidin-2-yl]-pyridin-2-ylamino}-phenoxy)-acetamide] it was < 100 nM; in that of `COc1cncc2nc(-c3ccnc(Nc4cccc(CC(N)=O)c4)c3)nc(N[C@@H]3CCNC3)c12` [Example 324, 2-(3-{4-[5-Methoxy-4-((R)-pyrrolidin-3-ylamino)-pyrido[3,4-d]pyrimidin-2-yl]-pyridin-2-ylamino}-phenyl)-acetamide], < 100 nM; in that of `COc1cncc2nc(-c3ccnc(NC(=O)Cc4cccc(N)c4)c3)nc(N[C@@H]3CCNC3)c12` [Example 325, 2-(3-Amino-phenyl)-N-{4-[5-methoxy-4-((R)-pyrrolidin-3-ylamino)-pyrido[3,4-d]pyrimidin-2-yl]-pyridin-2-yl}-acetamide], 10000 to 40000 nM.
Regarding `COc1cncc2nc(-c3ccnc(Nc4ccc(CC(N)=O)cc4)c3)nc(N[C@@H]3CCNC3)c12` [Example 326, 2-(4-{4-[5-Methoxy-4-((R)-pyrrolidin-3-ylamino)-pyrido[3,4-d]pyrimidin-2-yl]-pyridin-2-ylamino}-phenyl)-acetamide], the IC50 fell in the range of 100 to 1000 nM.
Take `COc1cncc2nc(-c3ccnc(NC(=O)Cc4ccc(N)cc4)c3)nc(N[C@@H]3CCNC3)c12` [Example 327, 2-(4-Amino-phenyl)-N-{4-[5-methoxy-4-((R)-pyrrolidin-3-ylamino)-pyrido[3,4-d]pyrimidin-2-yl]-pyridin-2-yl}-acetamide]: the IC50 was < 100 nM.
In the case of `N#Cc1ccnc2c1ccn2-c1cc(-c2nc(N[C@@H]3CCNC3)c3ccncc3n2)ccn1` [Example 328, 1-{4-[4-((R)-Pyrrolidin-3-ylamino)-pyrido[3,4-d]pyrimidin-2-yl]-pyridin-2-yl}-1H-pyrrolo[2,3-b]pyridine-4-carbonitrile] it was 1000 to 10000 nM; in that of `COc1cncc2nc(-c3ccnc(Nc4ccc(-c5ccccc5)cn4)c3)nc(N[C@@H]3CCNC3)c12` [Example 329, {5-Methoxy-2-[2-(5-phenyl-pyridin-2-ylamino)-pyridin-4-yl]-pyrido[3,4-d]pyrimidin-4-yl}-(R)-pyrrolidin-3-yl-amine], < 100 nM; in that of `COc1cncc2nc(-c3ccnc(Nc4ccc(N5CCOCC5)nc4)c3)nc(N[C@@H]3CCNC3)c12` [Example 330, {5-Methoxy-2-[2-(6-morpholin-4-yl-pyridin-3-ylamino)-pyridin-4-yl]-pyrido[3,4-d]pyrimidin-4-yl}-(R)-pyrrolidin-3-yl-amine], < 100 nM.
As for `COc1cncc2nc(-c3ccnc(Nc4ccc(N5CCN(C)CC5)nc4)c3)nc(N[C@@H]3CCNC3)c12` [Example 331, (5-Methoxy-2-{2-[6-(4-methyl-piperazin-1-yl)-pyridin-3-ylamino]-pyridin-4-yl}-pyrido[3,4-d]pyrimidin-4-yl)-(R)-pyrrolidin-3-yl-amine], the IC50 was < 100 nM.
In the case of `COc1cncc2nc(-c3ccnc(Nc4cc(C#N)ccn4)c3)nc(N[C@@H]3CCNC3)c12` [Example 332, 2-{4-[5-Methoxy-4-((R)-pyrrolidin-3-ylamino)-pyrido[3,4-d]pyrimidin-2-yl]-pyridin-2-ylamino}-isonicotinonitrile] it was < 100 nM.
As for `COc1cncc2nc(-c3ccnc(Nc4ccc(Cn5ccnc5)cc4)c3)nc(N[C@@H]3CCNC3)c12` [Example 333, {2-[2-(4-Imidazol-1-ylmethyl-phenylamino)-pyridin-4-yl]-5-methoxy-pyrido[3,4-d]pyrimidin-4-yl}-(R)-pyrrolidin-3-yl-amine], the IC50 fell in the range of 1000 to 10000 nM.
On to `O=C(Cc1ccccc1)Nc1cc(-c2nc(N[C@@H]3CCNC3)c3ccncc3n2)ccn1` [Example 334, 2-Phenyl-N-{4-[4-((R)-pyrrolidin-3-ylamino)-pyrido[3,4-d]pyrimidin-2-yl]-pyridin-2-yl}-acetamide], for which the IC50 lay in the range of 1000 to 10000 nM.
`COc1ccc(CC(=O)Nc2cc(-c3nc(N[C@@H]4CCNC4)c4ccncc4n3)ccn2)cc1` [Example 335, 2-(4-Methoxy-phenyl)-N-{4-[4-((R)-pyrrolidin-3-ylamino)-pyrido[3,4-d]pyrimidin-2-yl]-pyridin-2-yl}-acetamide]: the IC50 fell in the range of 100 to 1000 nM.
For `COc1ccccc1CC(=O)Nc1cc(-c2nc(N[C@@H]3CCNC3)c3ccncc3n2)ccn1` [Example 336, 2-(2-Methoxy-phenyl)-N-{4-[4-((R)-pyrrolidin-3-ylamino)-pyrido[3,4-d]pyrimidin-2-yl]-pyridin-2-yl}-acetamide], the IC50 lay in the range of 100 to 1000 nM.
`COc1cccc(CC(=O)Nc2cc(-c3nc(N[C@@H]4CCNC4)c4ccncc4n3)ccn2)c1` [Example 337, 2-(3-Methoxy-phenyl)-N-{4-[4-((R)-pyrrolidin-3-ylamino)-pyrido[3,4-d]pyrimidin-2-yl]-pyridin-2-yl}-acetamide]: the IC50 is < 100 nM.
`Cc1ccnc(Nc2cc(-c3nc(N[C@@H]4CCNC4)c4ccncc4n3)ccn2)c1` [Example 338, {2-[2-(4-Methyl-pyridin-2-ylamino)-pyridin-4-yl]-pyrido[3,4-d]pyrimidin-4-yl}-(R)-pyrrolidin-3-yl-amine]: the IC50 fell in the range of 1000 to 10000 nM.
In the case of `Clc1ccnc(Nc2cc(-c3nc(N[C@@H]4CCNC4)c4ccncc4n3)ccn2)c1` [Example 339, {2-[2-(4-Chloro-pyridin-2-ylamino)-pyridin-4-yl]-pyrido[3,4-d]pyrimidin-4-yl}-(R)-pyrrolidin-3-yl-amine], the IC50 was < 100 nM.
Take `N#Cc1ccc(Nc2cc(-c3nc(N[C@@H]4CCNC4)c4ccncc4n3)ccn2)nc1` [Example 341, 6-{4-[4-((R)-Pyrrolidin-3-ylamino)-pyrido[3,4-d]pyrimidin-2-yl]-pyridin-2-ylamino}-nicotinonitrile]: the IC50 is < 100 nM.
Consider `N#Cc1ccnc(Nc2cc(-c3nc(N4CCNCC4)c4ccncc4n3)ccn2)c1` [Example 342, 2-[4-(4-piperazin-1-yl-pyrido[3,4-d]pyrimidin-2-yl)-pyridin-2-ylamino]-isonicotinonitrile], for which the IC50 was 100 to 1000 nM.
In the case of `c1cc2c(N[C@@H]3CCNC3)nc(-c3ccnc(Nc4cc(N5CCOCC5)ccn4)c3)nc2cn1` [Example 343, {2-[2-(4-Morpholin-4-yl-pyridin-2-ylamino)-pyridin-4-yl]-pyrido[3,4-d]pyrimidin-4-yl}-(R)-pyrrolidin-3-yl-amine], the IC50 is 100 to 1000 nM.
